Source: paper PMC9265830, “Purification and Identification of a Novel Angiotensin Converting Enzyme Inhibitory Peptide from the Enzymatic Hydrolysate of Lepidotrigla microptera” (Foods, 2022)
Entries after “also recorded” stand apart in the source; their conditions may differ. Where no end group is shown, it is not given here.

How the values were obtained:
[1] = biological target: T1, ACE (Homo sapiens, UniProt P12821); assay: ACE-inhibitory activity (HHL substrate, hippuric acid by HPLC); format: biochemical; conditions: ultrafiltration, Sephadex G-15 and prep-HPLC fractions; chemically synthesized peptides; read-out: IC50 (ACE inhibition) of fractions and synthesized peptides (converted)
Procedure: (§1) ACE-inhibitory activity was determined following the method of Cushman. The reaction system comprised a sample (10 μL), HHL (2.5 mM, 30 μL), and ACE solution (0.1 U/mL, 20 μL) in sodium borate buffer (pH 8.3, 0.3 M NaCl). The mixture of HHL and the sample was pre-incubated for 15 min at 37 °C before adding the ACE solution. The reaction was carried out for 40 min at 37 °C in a water bath and terminated by adding HCl (1 mol/L, 60 μL). Then 20 μL of the reaction mixture was injected into an HPLC system (Shimadzu, Japan) equipped with a C-18 column (150 × 4.6 mm, 5 μm). In order to detect the concentration of HA (hippuric acid), isocratic elution was performed for 25 min in 80% mobile phase A (0.05% Trifluoroacetic acid in H2O) and 20% mobile phase B (Acetonitrile) at a 0.8 mL/min flow rate, and the detection wavelength was 280 nm. The ACE-inhibitory activity was calculated according to the formula:ACE-inhibitory activity (%) = (A1 − A2)/A1(1) where A1 and A2 equal the peak areas of blank control and the sample, respectively.

[2] = biological target: T1, ACE; assay: Inhibitory kinetics study (Lineweaver–Burk plots); format: biochemical; conditions: for Vmax of the enzyme reaction: HHL 1-5 mM, Vmax without peptide 20 mM/min
Procedure: Different concentrations of ACE-inhibitory peptide (0, 60, and 120 μM) were mixed with various concentrations of HHL solution (1, 2, 3, 4 and 5 mM) and pre-incubated for 5 min at 37 °C. Then the reaction was initiated by adding 80 µL of ACE and terminated by adding 20 µL of 1 mol/L HCl. The Lineweaver–Burk plot of the reciprocal of the HHL concentration (1/[s]) and the HA production rate (1/[v]) were used to analyze the inhibitory kinetics of peptide.

[3] = Thermal stability of ACE inhibitory activity; format: physicochemical
Procedure: as §1
The sample (0.2 mg/mL) was treated at various temperatures (20, 40, 60, 80, and 100 °C) for 1 h. After cooling the solution to indoor temperature (25 °C), the ACE inhibition activity was detected.

[4] = pH stability of ACE inhibitory activity; format: physicochemical; conditions: 0.2 mg/mL, 37 °C, 2 h, pH 3 to 11 (method: 2, 4, 6, 8, 10), readjusted to pH 7.0; read-out ACE inhibition
Procedure: as §1
The ACE-inhibitory peptide solution (0.2 mg/mL) was incubated at different pH levels (2, 4, 6, 8, and 10) at 37 °C for 2 h, and the pH value was adjusted by adding HCl (1 mol/L) and NaOH (1 mol/L). Before the ACE inhibition rate was determined, the pH value was adjusted to 7.0.

[5] = system: pepsin, pancreatin; assay: Simulated gastrointestinal digestion; format: in vitro ADME; conditions: 0.2 mg/mL; pepsin 0.05% pH 2.0 2 h 37 °C, then pancreatin 0.05% pH 7.5 2 h 37 °C; read-out ACE inhibition
Procedure: as §1
Simulated gastrointestinal digestion of ACE-inhibitory peptides was conducted following the method of Lai et al. with slight modifications. […]

T1 sequence (P12821 30-1306, species assumed): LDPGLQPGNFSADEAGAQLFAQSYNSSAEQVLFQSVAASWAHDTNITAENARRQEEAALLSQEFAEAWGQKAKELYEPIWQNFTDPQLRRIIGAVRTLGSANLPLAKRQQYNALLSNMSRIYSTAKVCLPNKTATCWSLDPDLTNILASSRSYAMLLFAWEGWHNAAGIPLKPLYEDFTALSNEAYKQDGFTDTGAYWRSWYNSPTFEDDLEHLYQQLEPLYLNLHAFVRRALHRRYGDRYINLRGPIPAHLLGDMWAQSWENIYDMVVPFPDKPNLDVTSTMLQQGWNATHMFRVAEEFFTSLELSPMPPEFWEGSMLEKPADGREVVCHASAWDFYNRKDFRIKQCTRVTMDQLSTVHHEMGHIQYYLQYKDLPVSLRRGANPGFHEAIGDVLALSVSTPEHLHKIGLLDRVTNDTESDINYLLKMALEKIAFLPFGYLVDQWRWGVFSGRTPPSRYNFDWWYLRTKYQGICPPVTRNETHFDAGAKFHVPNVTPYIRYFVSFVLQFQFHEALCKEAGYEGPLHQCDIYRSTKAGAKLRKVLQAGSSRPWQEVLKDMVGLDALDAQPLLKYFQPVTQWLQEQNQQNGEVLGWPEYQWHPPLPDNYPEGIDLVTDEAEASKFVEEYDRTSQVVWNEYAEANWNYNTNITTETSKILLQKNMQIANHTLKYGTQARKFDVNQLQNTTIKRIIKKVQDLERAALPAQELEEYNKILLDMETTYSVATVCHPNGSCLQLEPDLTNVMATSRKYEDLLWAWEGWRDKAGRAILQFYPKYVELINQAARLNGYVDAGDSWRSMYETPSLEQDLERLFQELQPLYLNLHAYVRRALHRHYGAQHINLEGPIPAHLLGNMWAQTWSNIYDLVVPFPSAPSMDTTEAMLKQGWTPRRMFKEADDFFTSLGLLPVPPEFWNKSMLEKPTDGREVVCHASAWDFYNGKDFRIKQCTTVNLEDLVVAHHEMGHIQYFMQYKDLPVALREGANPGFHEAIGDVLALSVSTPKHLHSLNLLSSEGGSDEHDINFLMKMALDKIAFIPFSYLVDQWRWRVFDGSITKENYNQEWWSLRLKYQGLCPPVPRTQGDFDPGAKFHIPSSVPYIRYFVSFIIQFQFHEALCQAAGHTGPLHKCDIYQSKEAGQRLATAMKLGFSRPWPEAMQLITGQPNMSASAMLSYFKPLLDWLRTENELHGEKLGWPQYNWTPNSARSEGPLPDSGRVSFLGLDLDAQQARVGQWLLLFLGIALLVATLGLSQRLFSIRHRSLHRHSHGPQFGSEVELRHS

| IC50 [1] [µM] | Vmax of the enzyme reaction ([2]; 60 μM peptide) [mM/min] | Vmax of the enzyme reaction ([2]; 120 μM peptide) [mM/min] | Inhibitory kinetic mechanism ([2]; Lineweaver–Burk plot) | ACE-inhibitory activity after heat treatment ([3]; 0.2 mg/mL, 1 h, temperature above 60 °C (up to 100 °C), read-out ACE inhibition) | ACE-inhibitory rate after heat treatment ([3]; 0.2 mg/mL, 1 h, temperature range 20 to 60 °C, read-out ACE inhibition) | Stability of ACE-inhibitory activity (abstract summary) ([3]; temperatures (<100 °C) and pH values (3.0–11.0)) | Molecule | ACE-inhibitory activity after pH treatment [4] | Relative ACE inhibition activity before and after digestion [5] |
| --- | --- | --- | --- | --- | --- | --- | --- | --- | --- |
| 214 |  |  |  |  |  |  | YLTLFLLT [YLTLFLLT, Tyr-Leu-Thr-Leu-Phe-Leu-Leu-Thr] |  |  |
|  | 5 | 2.78 | noncompetitive | slightly decreased | remained relatively stable | stable | CC(C)C[C@H](NC(=O)CNC(=O)[C@H](C)NC(=O)[C@@H](NC(=O)[C@H](CC(C)C)NC(=O)[C@@H](N)CC(=O)O)[C@@H](C)O)C(=O)N[C@@H](CC(C)C)C(=O)N[C@@H](CCC(=O)O)C(=O)O [DLTAGLLE, Phe-Leu-Thr-Ala-Gly-Leu-Leu-Asp] | maintained high ACE-inhibitory activity at all pH values | retained after gastrointestinal digestion; also recorded: essentially unchanged |
